Drawing on US10287305B2, “Substituted piperidine compound and use thereof” (Takeda Pharmaceutical Company Limited, priority 2016, dated 2019), this text covers EC50 and Emax for 19 compounds.

The assay deals with human orexin type 2 receptor (hOX2R) (Homo sapiens (Human), UniProt O43614). Description: Measurement of orexin type 2 receptor agonist activity (Experimental Example 2-1, FLIPR TETRA, intracellular Ca2+). In kind it is cell-based. The note with it: CHO dhfr- cells expressing hOX2R; for Emax at 30 µM: value at 30 uM concentration, orexin B as full agonist = 100%; for Emax: read-out: Emax (%). From the text: To obtain a cell clone stably expressing human orexin type 2 receptor, human orexin type 2 receptor cDNA was inserted into pcDNA3.1(+) plasmid vector (Invitrogen), and a plasmid DNA for expression of human orexin type 2 receptor (pcDNA3.1(+)/hOX2R) was cloned. The plasmid DNA was introduced into CHO-dhfr cell by an electroporation method, and human orexin type 2 receptor expressing clone cells were obtained by limiting dilution method by using G418 drug resistance as a selection marker.
human orexin type 2 receptor (hOX2R), sequence (O43614 whole entry): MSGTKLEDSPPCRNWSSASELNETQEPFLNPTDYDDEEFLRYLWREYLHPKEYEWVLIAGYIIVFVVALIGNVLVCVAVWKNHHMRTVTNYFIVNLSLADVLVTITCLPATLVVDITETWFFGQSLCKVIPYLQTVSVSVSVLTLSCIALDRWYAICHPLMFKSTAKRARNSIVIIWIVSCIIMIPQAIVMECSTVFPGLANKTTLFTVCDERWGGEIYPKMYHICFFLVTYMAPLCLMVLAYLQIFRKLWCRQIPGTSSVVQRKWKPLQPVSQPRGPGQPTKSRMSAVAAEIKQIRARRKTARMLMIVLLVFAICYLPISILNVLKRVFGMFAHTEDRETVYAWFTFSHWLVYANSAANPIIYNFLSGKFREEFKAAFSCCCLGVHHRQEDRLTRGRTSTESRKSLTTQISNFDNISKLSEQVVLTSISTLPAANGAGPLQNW
Chinese hamster ovary (CHO) dhfr-cells forcibly expressing human orexin type 2 receptor (hOX2R) were seeded in each well of Black clear bottom plate (384 wells) (Becton, Dickinson and Company) by 10,000 cells, and cultured for 16 hr in an MEM-alpha (Nikken-Bio Co., Ltd.) medium containing 100 U/ml penicillin, 100 μg/ml streptomycin, […] G418 (all above Invitrogen), and 10% fetal calf serum (Thermo), under the conditions of 37° C., 5% CO2. […] A test compound was dissolved in dimethyl sulfoxide to 10 mM, and then diluted with assay buffer 2 (20 mM HEPES, Hanks' balanced salt solution (Invitrogen), 0.1% bovine serum albumin). For the reaction, a test compound solution (10 μL) was added using Fluorescent Imaging Plate Reader TETRA (FLIPR TETRA; manufactured by Molecular Devices), a fluorescence value (excitation wavelength 488 nm, measurement wavelength 570 nm) of each well was measured every one second for 1 min, and the agonist activity was determined using the area of the fluorescence value as an indicator of intracellular Ca^2+ concentration.

Where [1] appears, read: agonist activity, 10 nM human orexin B = 100%.

A word on the EC50: it is the concentration at which the effect is half-maximal. A word on the Emax: it is the greatest response seen or fitted, relative to the assay's reference. The compound `CC(=O)N1CCC[C@H](NS(C)(=O)=O)[C@@H]1CO[C@H]1CC[C@@H](C(C)C)CC1` [Example 70, N-((2R,3S)-1-acetyl-2-(((cis-4-isopropylcyclohexyl)oxy)methyl)piperidin-3-yl)methanesulfonamide] displayed a maximal effect (Emax) at 30 µM of 98%. The EC50 under setting [1] was determined as 97 nM.

Turning to `COc1cccc([C@H]2CC[C@@H](OC[C@H]3[C@@H](NS(C)(=O)=O)CCCN3C(C)=O)CC2)c1` (relative stereo) [Example 271, N-(cis-1-acetyl-2-(((cis-4-(3-methoxyphenyl)cyclohexyl)oxy)methyl)piperidin-3-yl)methanesulfonamide], for the setting “FLIPR TETRA, Fluo-4AM”, it took 650 nM to reach a half-maximal effect (EC50) and the Emax was 104%.

For the compound `CS(=O)(=O)N[C@H]1CCCN(C(=O)C2CC2)[C@H]1COC1CCC(c2ccccn2)CC1` (relative stereo) [Example 251, N-(cis-1-(cyclopropylcarbonyl)-2-(((4-(pyridin-2-yl)cyclohexyl)oxy)methyl)piperidin-3-yl)methanesulfonamide], under “FLIPR TETRA, Fluo-4AM”, a half-maximal effect (EC50) was put at 240 nM and the Emax stood at 98%.

In the case of `CC(=O)N1CCC[C@H](NS(C)(=O)=O)[C@@H]1CO[C@H]1CC[C@@H](c2ccccc2C)CC1` [Example 319, N-((2R,3S)-1-acetyl-2-(((cis-4-(2-methylphenyl)cyclohexyl)oxy)-methyl)piperidin-3-yl)methanesulfonamide], under “FLIPR TETRA, Fluo-4AM”, the response was half-maximal at 29 nM (EC50) and the Emax came out at 106%.

With `COC(=O)N1CCC[C@H](NS(C)(=O)=O)[C@@H]1CO[C@H]1CC[C@@H](c2cc(F)cc(F)c2F)CC1` [Example 244, methyl (2R,3S)-3-((methylsulfonyl)amino)-2-(((cis-4-(2,3,5-trifluorophenyl)cyclohexyl)oxy)methyl)piperidine-1-carboxylate], where the note is “FLIPR TETRA, Fluo-4AM”, the response was half-maximal at 2.6 nM (EC50) and the Emax was 97%.

Take `CCS(=O)(=O)N[C@H]1CCCN(C(=O)C2CC2)[C@H]1CO[C@H]1CC[C@@H](c2ccccc2)CC1` (relative stereo) [Example 279, N-(cis-1-(cyclopropylcarbonyl)-2-(((cis-4-phenylcyclohexyl)oxy)methyl)piperidin-3-yl)ethanesulfonamide]: where the note is “FLIPR TETRA, Fluo-4AM”, the EC50 turned out to be 5.2 nM and the Emax was found to be 97%.

In turn, `COCCNC(=O)N1CCC[C@H](NS(C)(=O)=O)[C@@H]1CO[C@H]1CC[C@@H](C(C)C)CC1` (relative stereo) [Example 96, cis-2-(((cis-4-isopropylcyclohexyl)oxy)methyl)-N-(2-methoxyethyl)-3-((methylsulfonyl)amino)piperidine-1-carboxamide] registered an Emax at 30 µM of 95%. The same compound gave an EC50 under setting [1] of 26 nM.

For the compound `CC(=O)N1CCC[C@H](NS(C)(=O)=O)[C@@H]1CO[C@H]1CC[C@@H](c2ccc(F)cc2F)CC1` (relative stereo) [Example 145, N-(cis-1-acetyl-2-(((cis-4-(2,4-difluorophenyl)cyclohexyl)oxy)methyl)piperidin-3-yl)methanesulfonamide], where the note is “FLIPR TETRA, Fluo-4AM”, the response was half-maximal at 810 nM (EC50) and the Emax amounted to 106%.

With `CCCS(=O)(=O)N[C@H]1CCCN(C(C)=O)[C@H]1CO[C@H]1CC[C@@H](C(C)C)CC1` (relative stereo) [Example 77, N-(cis-1-acetyl-2-(((cis-4-isopropylcyclohexyl)oxy)methyl)piperidin-3-yl)propane-1-sulfonamide], the Emax at 30 µM was determined as 91%. The compound further displayed an EC50 under setting [1] of 1000 nM.

For `COC(=O)N1CCC[C@H](NS(C)(=O)=O)[C@@H]1CO[C@H]1CC[C@@H](c2ccccc2F)CC1` [Example 267, methyl (2R,3S)-2-(((cis-4-(2-fluorophenyl)cyclohexyl)oxy)methyl)-3-((methylsulfonyl)amino)piperidine-1-carboxylate], under “FLIPR TETRA, Fluo-4AM”, the response was half-maximal at 3.4 nM (EC50) and the Emax was found to be 94%.

Turning to `CC(=O)N1CCC[C@H](NS(C)(=O)=O)[C@@H]1CO[C@H]1CC[C@@H](c2cccc(C(F)(F)F)c2)CC1` (relative stereo) [Example 204, N-(cis-1-acetyl-2-(((cis-4-(3-(trifluoromethyl)phenyl)cyclohexyl)oxy)methyl)piperidin-3-yl)methanesulfonamide], under “FLIPR TETRA, Fluo-4AM”, a half-maximal response (EC50) required 710 nM and the Emax came to 102%.

Regarding `CCNC(=O)N1CCC[C@H](NS(C)(=O)=O)[C@@H]1CO[C@H]1CC[C@@H](c2cnn(C)c2)CC1` (relative stereo) [Example 137, cis-N-ethyl-2-(((cis-4-(1-methyl-1H-pyrazol-4-yl)cyclohexyl)oxy)methyl)-3-((methylsulfonyl)amino)piperidine-1-carboxamide], where the note is “FLIPR TETRA, Fluo-4AM”, the EC50 was 240 nM and the maximum response (Emax) amounted to 101%.

In the case of `CS(=O)(=O)N[C@H]1CCCN(C(=O)C2(O)CC2)[C@H]1CO[C@H]1CC[C@@H](c2ccccc2)CC1` (relative stereo) [Example 176, N-(cis-1-((1-hydroxycyclopropyl)carbonyl)-2-(((cis-4-phenylcyclohexyl)oxy)methyl)piperidin-3-yl)methanesulfonamide], where the note is “FLIPR TETRA, Fluo-4AM”, the EC50 is 45 nM and the Emax was 98%.

In turn, `CC(C)[C@H]1CC[C@@H](OC[C@H]2[C@@H](NS(C)(=O)=O)CCCN2C(=O)C2CC(=O)C2)CC1` [Example 91, N-((2R,3S)-2-(((cis-4-isopropylcyclohexyl)oxy)methyl)-1-((3-oxocyclobutyl)carbonyl)piperidin-3-yl)methanesulfonamide] yielded an Emax at 30 µM of 89%. Moreover, the EC50 under setting [1] was 39 nM.

`CS(=O)(=O)N[C@H]1CCCN(C(=O)C2CC2(F)F)[C@H]1COC1CCN(c2ccccc2F)CC1` (relative stereo) [Example 225, N-(cis-1-((2,2-difluorocyclopropyl)carbonyl)-2-(((1-(2-fluorophenyl)piperidin-4-yl)oxy)methyl)piperidin-3-yl)methanesulfonamide]: for the setting “FLIPR TETRA, Fluo-4AM”, the EC50 was 1000 nM and the Emax is 98%.

For the compound `CS(=O)(=O)N[C@H]1CCCN[C@H]1CO[C@H]1CC[C@@H](c2ccccc2C(F)F)CC1` [Example 320, N-((2R,3S)-2-(((cis-4-(2-(difluoromethyl)phenyl)cyclohexyl)-oxy)methyl)piperidin-3-yl)methanesulfonamide], for the setting “FLIPR TETRA, Fluo-4AM”, the response was half-maximal at 2000 nM (EC50) and the Emax worked out at 74%.

`COC(=O)N1CCC[C@H](NS(C)(=O)=O)[C@@H]1CO[C@H]1CC[C@@H](c2cccc(F)c2)CC1` [Example 200, methyl (2R,3S)-2-(((cis-4-(3-fluorophenyl)cyclohexyl)oxy)methyl)-3-((methylsulfonyl)amino)piperidine-1-carboxylate]: the Emax (FLIPR TETRA, Fluo-4AM) is 95%.

As to `CC(C)C(=O)N1CCC[C@H](NS(C)(=O)=O)[C@@H]1COC1CCN(c2ccccc2F)CC1` (relative stereo) [Example 224, N-(cis-2-(((1-(2-fluorophenyl)piperidin-4-yl)oxy)methyl)-1-isobutyrylpiperidin-3-yl)methanesulfonamide], where the note is “FLIPR TETRA, Fluo-4AM”, the response was half-maximal at 1700 nM (EC50) and the Emax was 90%.

Turning to `CC(=O)N1CCC[C@H](NS(C)(=O)=O)[C@@H]1CO[C@H]1CC[C@@H](C2CCCCC2)CC1` [Example 71, N-(cis-1-acetyl-2-(((1s,4s)-1,1′-bi(cyclohexyl)-4-yloxy)methyl)piperidin-3-yl)methanesulfonamide], the Emax at 30 µM was 83%. This compound returned an EC50 under setting [1] of 4300 nM.
